Measurements: paper PMC12184311 (2025)

Key:
[1] = test system: 3WJ (DNA, junction) CGGAACGGCACTCG/CGAGTGCAGCGTGG/CCACGCTCGTTCCG; experiment: PAGE; details: Na+ 50 mM (NaCl), 1X TB, 37 °C 1 h incubation
[2] = test system: 4WJ-18 (DNA, junction) GCTAGCTGATACGCTACG/CGTAGCGTACGTTGGTGC/GCACCAACGCGTCACTCC/GGAGTGACGTCAGCTAGC; experiment: PAGE; details: Na+ 50 mM (NaCl); 1X TB, 37 °C 1 h incubation; 0.25 to 5 equiv; compound induces junction assembly
[3] = test system: FAM-labelled 4WJ-18 (DNA, junction) GCTAGCTGATACGCTACG/CGTAGCGTACGTTGGTGC/GCACCAACGCGTCACTCC/GGAGTGACGTCAGCTAGC; experiment: PAGE competition, FAM fluorescence; details: Na+ 50 mM (NaCl); 1X TB, 37 °C 1 h; 1 equivalent Pt-BIMA; competitor unlabelled 4WJ-18, Y fork, dsDNA, 3WJ
[4] = test system: 4WJ-22 (DNA, junction) GCCTAGCATGATACTGCTACCG/CGGTAGCAGTACCGTTGGTGGC/GCCACCAACGGCGTCAACTGCC/GGCAGTTGACGTCATGCTAGGC; experiment: PAGE gel shift; details: Na+ 50 mM (NaCl); 1X TB

Row | Structure (SMILES) | binding ([1]; control lane) | binding [2] | binding ([1]; 0.25 to 5 equiv) | binding [3] | binding [4]
1 | C(=Nc1ccc(Cc2ccc(N=Cc3ccccn3)cc2)cc1)c1ccccn1.C(=Nc1ccc(Cc2ccc(N=Cc3ccccn3)cc2)cc1)c1ccccn1.C(=Nc1ccc(Cc2ccc(N=Cc3ccccn3)cc2)cc1)c1ccccn1.[Ni+2].[Ni+2] | yes | – | – | – | –
2 | [Pd+2].[Pd+2].c1ccc2c(c1)ncn2Cc1c2ccccc2c(Cn2cnc3ccccc32)c2ccccc12.c1ccc2c(c1)ncn2Cc1c2ccccc2c(Cn2cnc3ccccc32)c2ccccc12.c1ccc2c(c1)ncn2Cc1c2ccccc2c(Cn2cnc3ccccc32)c2ccccc12.c1ccc2c(c1)ncn2Cc1c2ccccc2c(Cn2cnc3ccccc32)c2ccccc12 | – | yes | yes | – | –
3 | [Pt+2].[Pt+2].c1ccc2c(c1)ncn2Cc1c2ccccc2c(Cn2cnc3ccccc32)c2ccccc12.c1ccc2c(c1)ncn2Cc1c2ccccc2c(Cn2cnc3ccccc32)c2ccccc12.c1ccc2c(c1)ncn2Cc1c2ccccc2c(Cn2cnc3ccccc32)c2ccccc12.c1ccc2c(c1)ncn2Cc1c2ccccc2c(Cn2cnc3ccccc32)c2ccccc12 | – | yes | yes | yes | yes
